Source: the supplement of paper PMC6045584
± gives the standard deviation of the averaged measurements.

Experiments:
[1] = compound: COc1cc2c(Oc3ccc(NC(=O)C4(C(=O)Nc5ccc(F)cc5)CC4)cc3F)ccnc2cc1OCCCN1CCOCC1 [FORETINIB]; assay: surviving fraction relative to DMSO-only wells; higher = less growth inhibition; conditions: exposure time: 5 days
Outline: (§1)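 Luminescence normalised to the median of DMSO-only wells defines surviving fraction, with viability read by CellTiter-Glo. Signal was recorded after 10 minutes at room temperature, once log-phase tumour cell lines seeded at 250–500 cells per well in 384-well plates had spent 24 hours settling and then five days under continuous exposure to inhibitors at 0.5, 1, 5, 10, 50, 100, 500 and 1000 nM.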

[2] = compound: C[C@@H](Oc1cc(-c2cnn(C3CCNCC3)c2)cnc1N)c1c(Cl)ccc(F)c1Cl [CRIZOTINIB]; assay: as above; conditions: exposure time: 5 days
Outline: as §1

## MCF7 BREAST
[1]; 0.5 nM
  surviving fraction: 0.938 ± 0.026
[1]; 1 nM
  surviving fraction: 0.958 ± 0.056
[1]; 5 nM
  surviving fraction: 0.972 ± 0.031
[1]; 10 nM
  surviving fraction: 0.993 ± 0.057
[1]; 50 nM
  surviving fraction: 0.908 ± 0.052
[1]; 100 nM
  surviving fraction: 0.959 ± 0.0097
[1]; 500 nM
  surviving fraction: 0.669 ± 0.055
[1]; 1000 nM
  surviving fraction: 0.701 ± 0.066
[2]; 0.5 nM
  surviving fraction: 0.963 ± 0.04
[2]; 5 nM
  surviving fraction: 0.967 ± 0.011
[2]; 10 nM
  surviving fraction: 0.968 ± 0.042
[2]; 50 nM
  surviving fraction: 1 ± 0.025
[2]; 100 nM
  surviving fraction: 0.981 ± 0.021
[2]; 500 nM
  surviving fraction: 1 ± 0.05
[2]; 1000 nM
  surviving fraction: 0.617 ± 0.035

## MDAMB134 BREAST
[1]; 0.5 nM
  surviving fraction: 0.888 ± 0.12
[1]; 1 nM
  surviving fraction: 1.41 ± 0.042
[1]; 5 nM
  surviving fraction: 0.916 ± 0.06
[1]; 10 nM
  surviving fraction: 1.37 ± 0.026
[1]; 50 nM
  surviving fraction: 0.86 ± 0.16
[1]; 100 nM
  surviving fraction: 1.17 ± 0.32
[1]; 500 nM
  surviving fraction: 0.939 ± 0.14
[1]; 1000 nM
  surviving fraction: 0.886 ± 0.033
[2]; 1 nM
  surviving fraction: 1.01 ± 0.028
[2]; 5 nM
  surviving fraction: 0.93 ± 0.068
[2]; 10 nM
  surviving fraction: 1.06 ± 0.04
[2]; 50 nM
  surviving fraction: 0.91 ± 0.0085
[2]; 500 nM
  surviving fraction: 1.05 ± 0.019
[2]; 1000 nM
  surviving fraction: 0.947 ± 0.026

## MDAMB157 BREAST
[1]; 0.5 nM
  surviving fraction: 0.967 ± 0.045
[1]; 1 nM
  surviving fraction: 0.987 ± 0.035
[1]; 5 nM
  surviving fraction: 1.1 ± 0.095
[1]; 10 nM
  surviving fraction: 0.975 ± 0.0044
[1]; 50 nM
  surviving fraction: 0.971 ± 0.074
[1]; 100 nM
  surviving fraction: 0.934 ± 0.081
[1]; 500 nM
  surviving fraction: 0.537 ± 0.085
[1]; 1000 nM
  surviving fraction: 0.231 ± 0.02
[2]; 0.5 nM
  surviving fraction: 1.03 ± 0.087
[2]; 1 nM
  surviving fraction: 0.999 ± 0.027
[2]; 5 nM
  surviving fraction: 1.06 ± 0.076
[2]; 10 nM
  surviving fraction: 0.977 ± 0.044
[2]; 50 nM
  surviving fraction: 1.06 ± 0.11
[2]; 100 nM
  surviving fraction: 1.04 ± 0.082
[2]; 500 nM
  surviving fraction: 0.754 ± 0.021
[2]; 1000 nM
  surviving fraction: 0.601 ± 0.029

## MDAMB231 BREAST
[1]; 0.5 nM
  surviving fraction: 0.974 ± 0.018
[1]; 1 nM
  surviving fraction: 0.985 ± 0.013
[1]; 5 nM
  surviving fraction: 0.998 ± 0.017
[1]; 10 nM
  surviving fraction: 1 ± 0.03
[1]; 50 nM
  surviving fraction: 0.971 ± 0.0077
[1]; 100 nM
  surviving fraction: 0.9367 ± 0.0039
[1]; 500 nM
  surviving fraction: 0.489 ± 0.0095
[1]; 1000 nM
  surviving fraction: 0.449 ± 0.0084
[2]; 0.5 nM
  surviving fraction: 0.997 ± 0.019
[2]; 1 nM
  surviving fraction: 1.01 ± 0.024
[2]; 5 nM
  surviving fraction: 0.999 ± 0.034
[2]; 10 nM
  surviving fraction: 1 ± 0.023
[2]; 50 nM
  surviving fraction: 0.947 ± 0.031
[2]; 100 nM
  surviving fraction: 0.9384 ± 0.0074
[2]; 500 nM
  surviving fraction: 0.541 ± 0.011
[2]; 1000 nM
  surviving fraction: 0.352 ± 0.022

## MDAMB361 BREAST
[1]; 0.5 nM
  surviving fraction: 0.794 ± 0.035
[1]; 1 nM
  surviving fraction: 0.877 ± 0.15
[1]; 5 nM
  surviving fraction: 0.803 ± 0.05
[1]; 10 nM
  surviving fraction: 1.18 ± 0.11
[1]; 50 nM
  surviving fraction: 0.9 ± 0.15
[1]; 100 nM
  surviving fraction: 0.798 ± 0.021
[1]; 500 nM
  surviving fraction: 0.918 ± 0.1
[1]; 1000 nM
  surviving fraction: 0.918 ± 0.073
[2]; 0.5 nM
  surviving fraction: 0.815 ± 0.053
[2]; 1 nM
  surviving fraction: 0.898 ± 0.094
[2]; 5 nM
  surviving fraction: 0.881 ± 0.035
[2]; 10 nM
  surviving fraction: 0.848 ± 0.079
[2]; 50 nM
  surviving fraction: 0.828 ± 0.07
[2]; 500 nM
  surviving fraction: 0.882 ± 0.067
[2]; 1000 nM
  surviving fraction: 1.03 ± 0.095
